From article PMC9077138, “An investigation on 3-acetyl-7-methoxy-coumarin Schiff bases and their Ru(II) metallates with potent antiproliferative activity and enhanced LDH and NO release” (RSC Advances, 2018)

Experiments:
HSA = target: T1, HSA (Homo sapiens, UniProt P02768); assay: Three-dimensional fluorescence spectra of HSA; assay type: binding; conditions: HSA 10 μM + compound 10 μM, pH 7.4, 298 K
T1 construct: purchased HiMedia (Mumbai, India)
Description: To investigate the micro environmental changes in BSA/HSA during interaction with the compounds, three dimensional fluorescence spectroscopic studies have been performed. The changes observed in 3D emission spectra and contour lines of serum albumins in the absence and presence of ligands and complexes are given in Fig. 15, 16, S34 and S35 in the ESI ^† and their corresponding characteristic parameters are provided in Table 5. The emission spectra of serum albumins such as BSA and HSA have shown three characteristic peaks – peaks A and C corresponds to first and second order Rayleigh scattering and peak B corresponds to the spectral characteristics of Trp and Tyr residues of proteins.[57] The emission intensity of Rayleigh first order scattering peak increased upon adding the compounds to serum albumins. […] The fluorescence intensity of peak ‘B’ corresponding to the tryptophan and tyrosine residues decreased with slight blue shift. From the results, it is inferred that the molecular microenvironment and conformational changes of protein occurred after interaction with the complexes and ligands.
Fig. 16 Three-dimensional fluorescence spectra of HSA in the absence and presence of ruthenium(II) complexes 1–4 (pH 7.4, 298 K, [HSA] = 10 μM, [complex] = 10 μM).
Fig. S35. Three-dimensional fluorescence spectra of HSA in the absence and presence of
ligands H 2L1-4 (pH 7.4, 298 K, [HSA] =10 µM, [Ligand] =10 µM) […]

CT-DNA [1] = assay: EB-DNA competitive binding (fluorescence quenching); set-up: species or system calf; conditions: compounds 10–100 μM; for quenching of the emission band of DNA-bound EB: % of the initial fluorescence intensity; for Quenching constant KSV: Stern–Volmer, DNA-EB 10 μM
Procedure: The competitive binding experiments were carried out on the EB–CT-DNA system by varying the concentrations of the ligands and complexes to get further information about the binding mode of compounds with DNA. In our studies, it was noted that upon concomitant addition of the compounds to the EB-DNA system, emission intensity decreased progressively, indicative of competition between EB and compounds towards CT-DNA in binding/chelation (Fig. S26 ^†). The reduction of the fluorescence emission intensity gives criteria to investigate the DNA binding propensity of the compounds and stacking interaction (intercalation) between the adjacent DNA base pairs.[45] […] This provides a direct evidence for the intercalative binding mode of the compounds with DNA.
Further quantitative measurement of the magnitude of interaction was ascertained by the classical Stern–Volmer equation. Quenching constant KSV is used to evaluate the quenching efficiency and is obtained from the slope of Io/I versus [Q] […] Further, the calculated KSV values of the compounds are significant when compared to the reported values.[30,31]
(§1) Supplementary Information
(§2) All the experiments involving CT-DNA binding were carried out in deionised water with tris(hydroxymethyl)-aminomethane (Tris, 5 mM) and sodium chloride (50 mM) and adjusted to pH 7.2 with hydrochloric acid at room temperature. The concentration of CT-DNA was determined by UV absorbance at 260 nm. Solutions of CT-DNA in Tris-HCl buffer gave a ratio of UV absorbance at 260 and 280 nm, A260/A280, of approximately 1.9, […]
The molar absorption coefficient, […]
[DNA]/[εa-εf]) = [DNA]/[ε b-εf]+1/Kb[εb-εf] (S1) […]
EB-DNA. The change in the fluorescence intensity was recorded. Before measurements, the system was shaken well and incubated at room temperature for 5 min. […]

CT-DNA [2] = assay: UV-Vis absorption titration with CT-DNA; set-up: species or system calf; conditions: intrinsic binding constant, Tris–HCl buffer pH 7.2
Description: DNA-binding studies are important for the rational design and construction of new and more efficient drugs targeted to DNA.[42] The binding affinity of the ligands and their organoruthenium(II) complexes with CT-DNA can be measured by using UV-Vis spectroscopy. The UV-Vis absorption spectra of the free ligands and their complexes in the absence and presence of CT DNA are given in Fig. S25 ^† and 7. […] The decrease in absorbance with increase in concentration of CT-DNA may be due to the decrease in transition probabilities as a result of partial transfer of electrons from the π orbital of the DNA base pairs to the coupled π* orbital of the coordinated Schiff base to metal due to overlapping.[43] The extent of hypochromism in the charge transfer band is an indication of the strength of intercalative interaction.[43]
In order to compare the DNA-binding affinities of the ligands and their metal complexes quantitatively, their intrinsic binding constants Kbin were obtained according to eqn (S1). ^† The binding constant value was calculated from the plot of [DNA]/(εa − εf) versus [DNA] and the data were given in Table 3 (Fig. 8). […] This may be due to the presence of different substituents in the terminal nitrogen atom of the ligands.
as §1, §2
The molar absorption coefficient, ε260, was taken as 6600 M−1 cm−1.Various concentrations of CT-DNA (2-2.5 µM) was added to the complexes (25 µM dissolved in DMSO/Tris-HCl buffer, 1 % DMSO in the final solution). While measuring the absorption spectra, an equal amount of DNA was added to both the test and reference solutions to eliminate the absorbance of DNA itself. Control experiments with DMSO were performed and no change in the spectra of CT-DNA was observed. Absorption spectra were recorded after equilibrium at 20 °C for 10 min. The intrinsic binding constant K b was determined by using following equation(1) [DNA]/[εa-εf]) = [DNA]/[ε b-εf]+1/Kb[εb-εf] (S1)
The absorption coefficients εa, εf and εb correspond to Aobsd/[DNA], the extinction coefficient for the free compound and for the compound in the fully bound form respectively. The slope and the intercept of the linear fit of the plot of [DNA]/[εa −εf] versus [DNA] give […] and 1/Kb[εb−εf] respectively. The intrinsic binding constant Kb can be obtained from the ratio of the slope to the intercept. […]

T1 sequence (P02768 25-609): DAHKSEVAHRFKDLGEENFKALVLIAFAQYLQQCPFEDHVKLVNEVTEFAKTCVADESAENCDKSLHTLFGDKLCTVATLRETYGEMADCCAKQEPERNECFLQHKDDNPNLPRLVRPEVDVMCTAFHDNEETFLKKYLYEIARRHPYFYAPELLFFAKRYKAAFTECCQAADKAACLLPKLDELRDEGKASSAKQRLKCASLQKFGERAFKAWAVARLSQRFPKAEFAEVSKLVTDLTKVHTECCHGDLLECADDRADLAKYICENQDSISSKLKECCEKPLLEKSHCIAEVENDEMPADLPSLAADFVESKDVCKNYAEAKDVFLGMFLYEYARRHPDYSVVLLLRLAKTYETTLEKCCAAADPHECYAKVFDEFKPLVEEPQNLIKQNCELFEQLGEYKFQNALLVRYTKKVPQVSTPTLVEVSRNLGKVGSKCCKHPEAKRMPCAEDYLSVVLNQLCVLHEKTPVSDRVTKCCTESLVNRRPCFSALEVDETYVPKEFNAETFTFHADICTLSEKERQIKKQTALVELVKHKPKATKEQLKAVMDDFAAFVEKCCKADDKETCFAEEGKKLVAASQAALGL

Row | Structure (SMILES) | melting point [°C] | Fluorescence peaks Intensity (F) (HSA) | Fluorescence peaks Peak position λex/λem (HSA) | Fluorescence peaks Stokes Δλ (HSA) [nm] | Rayleigh scattering peaks Intensity (F) (HSA) | quenching of the emission band of DNA-bound EB (CT-DNA [1]) [%] | Quenching constant KSV (CT-DNA [1]) | Binding constant Kbin (CT-DNA [2])
1 | CCNC(=S)NN=C(C)c1cc2ccc(OC)cc2oc1=O [H2L^3, ((1E)-1-(1-(7-methoxy-2-oxo-2H-chromen-3-yl)ethylidene) 4(N)-ethylthiosemicarbazone)] | 174 | – | – | – | – | – | – | –
2 | COc1ccc2cc(/C(C)=N\NC(=S)Nc3ccccc3)c(=O)oc2c1 [H2L^4, ((1E)-1-(1-(7-methoxy-2-oxo-2H-chromen-3-yl)ethylidene) 4(N)-phenylthiosemicarbazone)] | 186 | – | – | – | – | – | – | –
3 | CNC(=S)NN=C(C)c1cc2ccc(OC)cc2oc1=O [H2L^2, ((1E)-1-(1-(7-methoxy-2-oxo-2H-chromen-3-yl)ethylidene) 4(N)-methylthiosemicarbazone)] | 117 | – | – | – | – | – | – | –
4 | COc1ccc2cc(C(C)=NNC(N)=S)c(=O)oc2c1 [H2L^1, ((1E)-1-(1-(7-methoxy-2-oxo-2H-chromen-3-yl)ethylidene)thiosemicarbazone)] | 213 | – | – | – | – | – | – | –
5 | COc1ccc2[c]3c(c(=O)oc2c1)C(C)=[N+]1N=C(N)[S][Ru-4]31([C]#[O+])([P+](c1ccccc1)(c1ccccc1)c1ccccc1)[P+](c1ccccc1)(c1ccccc1)c1ccccc1 [Complex 1, [Ru(7MAC-tsc)(CO)(PPh3)2]] | – | 268.14 | 280/335 | 55 | 652.04 | 27.83 | 4.16 ± 0.002 × 10^3 M^−1 | 1.2544 ± 0.304 × 10^6 M^−1
6 | COc1ccc2[c]3c(c(=O)oc2c1)C(C)=[N+]1N=C(Nc2ccccc2)[S][Ru-4]31([C]#[O+])([P+](c1ccccc1)(c1ccccc1)c1ccccc1)[P+](c1ccccc1)(c1ccccc1)c1ccccc1 [Complex 4, [Ru(7MAC-ptsc)(CO)(PPh3)2]] | – | 276.12 | 280/332 | 52 | 830.46 | 28.92 | 4.00 ± 0.002 × 10^3 M^−1 | 1.0636 ± 0.334 × 10^6 M^−1
7 | CCNC1=N[N+]2=C(C)c3[c](c4ccc(OC)cc4oc3=O)[Ru-4]2([C]#[O+])([P+](c2ccccc2)(c2ccccc2)c2ccccc2)([P+](c2ccccc2)(c2ccccc2)c2ccccc2)[S]1 [Complex 3, [Ru(7MAC-etsc)(CO)(PPh3)2]] | – | 266.21 | 280/337 | 57 | 612.58 | 36.99 | 5.62 ± 0.003 × 10^3 M^−1 | 1.4428 ± 0.279 × 10^6 M^−1
8 | CNC1=N[N+]2=C(C)c3[c](c4ccc(OC)cc4oc3=O)[Ru-4]2([C]#[O+])([P+](c2ccccc2)(c2ccccc2)c2ccccc2)([P+](c2ccccc2)(c2ccccc2)c2ccccc2)[S]1 [Complex 2, [Ru(7MAC-mtsc)(CO)(PPh3)2]] | – | 269.53 | 280/331 | 51 | 790.59 | 36.67 | 5.52 ± 0.009 × 10^3 M^−1 | 1.3958 ± 0.320 × 10^6 M^−1
